Source: patent publication US10385005B2, “Compositions and methods for glucose transport inhibition” (OHIO UNIVERSITY, priority 2010, dated 2019)
“And” between values parts separate entries of the source, which are not always exact repeats. Identical values can stand only once. Marks after values point to notes of the source that are not given here.

Experiments:
H1299 cells = test: Standard glucose uptake assay, H1299; assay type: cell-based, human; settings: for Glucose transport inhibition (%) / level of glucose transport inhibition (in words): H1299; for % inhibition of basal glucose transport: Table 3, 30 μM in H1299 cells
Procedure: (§1) Briefly, H1299 cancer cells were treated with or without the compounds (30 μM) in triplicates for 10 min before the glucose uptake assay. Cellular glucose uptake was measured by incubating cells in the glucose-free KRP buffer with […] [^3H]2-deoxyglucose (specific activity, 40 Ci/mmol) for 30 min in the absence or presence of compounds. After the cells were washed with ice-cold PBS and lysed by 0.2 N NaOH, the cell lysates were transferred to scintillation counting vials and the radioactivity in the cell lysates was quantified by liquid scintillation counting. Cell growth measurements were performed using an MTT assay in hexads in a 96-well tissue culture plate with 5,000 cells plated in each well. The cells were incubated in presence or absence of the compounds (30 μM) for 48 h. After incubation, cell viabilities were assayed using a 96-well SPECTRAMAX™ absorbance/fluorescence plate reader (Molecular Devices).
Cancer cells are treated with or without the compounds for 10 min before the glucose uptake assay. Cellular glucose uptake will be measured by incubating cells in glucose-free RPMI 1640 with […] [^3H]2-deoxyglucose (specific activity, 40 Ci/mmol) for 30 min in the absence and presence of compounds. After the cells are washed with ice-cold PBS and lysed, the cell lysates will be transferred to scintillation counting vials and the radioactivity in the cell lysates is quantified by liquid scintillation counting.

H1299 lung cancer cells = test: MTT cell growth / viability assay, H1299; assay type: cell-based, human
Procedure: as §1
MTT assays are performed by the following well-established method. In a 96 well tissue culture plate 10,000 cells are plated in each well. The cells are incubated in presence or absence of the compounds for 18 h. 3-(4,5-Dimethylthiazol-2-yl)-2,5-diphenyltetrazolium bromide (MTT) is dissolved in PBS (10 mg/ml) and filter sterilized. Three hours before the end of the incubation 20 μL of MTT solution is added to each well containing cells in a 96-well plate. The plate is incubated in an incubator at 37° C. for 3 h. Media is aspirated gently and 200 μL of DMSO is added to each well to dissolve formazan crystals. The absorbance is measured at 550 nm for cell viability.

basal glucose uptake = test: Glucose uptake of possible hydrolyzed products (FIG. 2); assay type: cell-based
Source text: (§2) In summary, a library of multiphenolic ester compounds as novel inhibitors of basal glucose transport and anticancer agents with a potential new target, basal glucose transport, were synthesized.

cancer cells = test: Anticancer screens of hydrolysis products; assay type: cell-based
Source text: as §2

[1] = HPLC analysis of compound stability in human serum; assay type: in vitro ADME; settings: for Compound concentration (%) after incubation with serum: human serum, 37 C
Procedure: A total of 2.5 ml of compound solution was added to 22.5 ml of human serum and the mixture was incubated at 37 C for various times. The final concentration of the compound in serum was 6.8 mM. After incubation, […] of acetonitrile was added to the mixture, centrifuged to remove proteins before HPLC analysis. The relative concentration of samples at 0 h (in serum but without incubation) was arbitrarily assigned a value of 100% and all other samples were compared to the 0 h samples.

[2] = Table 2, 30 μM, untreated cells 0% inhibition

SMILES	Glucose transport inhibition (%) (H1299 cells; Table 12)	Glucose transport inhibition (%) (H1299 cells; [2])	Cell growth inhibition (%) (H1299 lung cancer cells; Table 2, 30 μM, 48 h)	other results
CN(C(=O)c1cccc(O)c1)c1ccc(Cl)cc1N(C)C(=O)c1cccc(O)c1 [WZB-142]	82.7 ± 6.8%	–	–	Cell growth inhibition (%) (H1299 lung cancer cells; Table 12): 14.2 ± 9.0%
O=C(Oc1cccc(F)c1OC(=O)c1ccc(O)c(O)c1)c1ccc(O)c(O)c1 [Compound 1j]	–	88.7 ± 1.8	41.5 ± 5.5	–
COc1cccc(OCc2cccc(O)c2)c1OCc1cccc(O)c1 [WZB-132]	60.0 ± 7.7%	–	–	Cell growth inhibition (%) (H1299 lung cancer cells; Table 12): 6.0 ± 2.2%
O=C(Oc1cccc(F)c1OC(=O)c1cc(O)cc(O)c1)c1cc(O)cc(O)c1 [Compound 1g]	–	94.0 ± 0.8	35.0 ± 7.6	% inhibition of basal glucose transport (H1299 cells; listed as WZB-113): 96.7 ± 1.6%
COc1cccc(C(=O)Oc2cccc(OC)c2OC(=O)c2cccc(OC)c2)c1 [Compound 7d]	–	32.1 ± 0.2	18.3 ± 4.3	–
Oc1cccc(F)c1O [Compound 6c]	–	–	–	glucose uptake inhibition activity (basal glucose uptake): none of these compounds had any glucose uptake inhibition activity; activity in anticancer screens (cancer cells): none of these compounds showed any activity in anticancer screens
O=C(Oc1ccc(Cl)cc1OC(=O)c1cc(O)c(O)c(O)c1)c1cc(O)c(O)c(O)c1 [Compound 1b]	–	84.4 ± 0.1	–	–
O=C(Oc1cccc(OC(=O)c2cc(O)cc(O)c2)c1OC(=O)c1cc(O)cc(O)c1)c1cc(O)cc(O)c1 [Compound 2b]	–	98.7 ± 0.8	41.0 ± 5.5	% inhibition of basal glucose transport (H1299 cells; listed as WZB-111): 99.5 ± 0.3%
Oc1cccc(CNc2ccc(Cl)cc2NCc2cccc(O)c2)c1 [WZB-138]	52.2 ± 9.7%	–	–	–
O=C(Nc1ccc(F)cc1NC(=O)c1cccc(O)c1)c1cccc(O)c1 [WZB-124]	89.7 ± 2.5^b %	–	–	Cell growth inhibition (%) (H1299 lung cancer cells; Table 12): 5.7 ± 2.1%
COc1cccc(OC(=O)c2cc(O)cc(O)c2)c1OC(=O)c1cc(O)cc(O)c1 [Compound 1e]	–	69.4 ± 3.0	–	level of glucose transport inhibition (in words) (H1299 cells; 30 μM): little to no inhibition
COc1cccc(OC(=O)c2ccc(O)c(O)c2)c1OC(=O)c1ccc(O)c(O)c1 [Compound 1h]	–	0	32.4 ± 2.7	level of glucose transport inhibition (in words) (H1299 cells; 30 μM): little to no inhibition
COc1cccc(OC(=O)c2ccccc2O)c1OC(=O)c1ccccc1O [Compound 1k]	–	50.5 ± 7.6	18.0 ± 4.4	–
Oc1cccc(O)c1O [Compound 8, pyrogallol]	–	–	–	glucose uptake inhibition activity (basal glucose uptake): none of these compounds had any glucose uptake inhibition activity; activity in anticancer screens (cancer cells): none of these compounds showed any activity in anticancer screens
CN(Cc1cccc(O)c1)c1ccc(F)cc1N(C)Cc1cccc(O)c1 [WZB-144]	78.2±1.4%	–	–	Cell growth inhibition (%) (H1299 lung cancer cells; Table 12): 14.5±7.6%
O=C(Oc1cccc(F)c1OC(=O)c1ccccc1O)c1ccccc1O [Compound 1m]	–	51.0 ± 6.6	–	–
Oc1cccc(COc2cccc(F)c2OCc2cccc(O)c2)c1 [WZB-134]	92.5±2.2% and 92.6 ± 2.2%	–	–	Cell growth inhibition (%) (H1299 lung cancer cells; Table 12): 10.6±2.0%
O=C(Oc1ccc(Cl)cc1OC(=O)c1ccccc1O)c1ccccc1O [Compound 1l]	–	51.6 ± 5.9	26.6 ± 2.3	–

SMILES	Glucose transport inhibition (%) (H1299 cells; Table 12)	Glucose transport inhibition (%) (H1299 cells; [2])	Cell growth inhibition (%) (H1299 lung cancer cells; Table 2, 30 μM, 48 h)	other results
O=C(Oc1cccc(OC(=O)c2ccc(O)c(O)c2)c1OC(=O)c1ccc(O)c(O)c1)c1ccc(O)c(O)c1 [Compound 2c]	–	94.7 ± 0.4	42.2 ± 6.1	–
COc1cc(C(=O)Oc2cccc(F)c2OC(=O)c2cc(OC)c(OC)c(OC)c2)cc(OC)c1OC [Compound 7c]	–	7.9 ± 2.6	19.6 ± 3.6	level of glucose transport inhibition (in words) (H1299 cells; 30 μM, listed as WZB-101): dramatically decreased levels of activity
CN(C(=O)c1cccc(O)c1)c1ccc(F)cc1N(C)C(=O)c1cccc(O)c1 [WZB-143]	85.7 ± 3.6%	–	–	Cell growth inhibition (%) (H1299 lung cancer cells; Table 12): 31.1 ± 7.9%
O=C(Oc1ccccc1OC(=O)c1cc(O)c(O)c(O)c1)c1cc(O)c(O)c(O)c1 [Compound 1d]	–	32.1 ± 6.2	–	level of glucose transport inhibition (in words) (H1299 cells; 30 μM): lower levels of inhibition relative to 1a and 2a
Oc1cccc(COc2ccc(Cl)c(OCc3cccc(O)c3)c2)c1 [WZB-141]	96.5±0.5%	–	–	Cell growth inhibition (%) (H1299 lung cancer cells; Table 12): 39.5±1.8%; Compound concentration (%) after incubation with serum ([1]; 0 h (arbitrarily assigned 100%)): 100%; Compound concentration (%) after incubation with serum ([1]; 4 h): 103.5%; Compound concentration (%) after incubation with serum ([1]; 24 h): 109.7%; Compound concentration (%) after incubation with serum ([1]; 48 h): 87.4%; relative stability in serum ([1]; ether vs ester bond-containing compounds): much more stable in serum than ester bond-containing compounds WZB-115 and WZB-117; Compound concentration (%) after incubation with serum ([1]; l h): 100.3%
O=C(Oc1ccc(Cl)cc1OC(=O)c1cc(O)cc(O)c1)c1cc(O)cc(O)c1 [Compound 1f]	–	95.2 ± 0.2	38.8 ± 6.9	% inhibition of basal glucose transport (H1299 cells; listed as WZB-114): 96.1 ± 0.1%
O=C(Oc1ccc(Cl)cc1OC(=O)c1ccc(O)c(O)c1)c1ccc(O)c(O)c1 [Compound 1i]	–	94.4 ± 0.4	45.2 ± 7.6	–
Oc1cccc(CNc2ccc(F)cc2NCc2cccc(O)c2)c1 [WZB-139]	39.2 ± 0.8%	–	–	–
O=C(Nc1ccc(Cl)cc1NC(=O)c1cccc(O)c1)c1cccc(O)c1 [WZB-125]	83.7 ± 0.7%	–	–	Cell growth inhibition (%) (H1299 lung cancer cells; Table 12): 5.9 ± 1.4%
O=C(Oc1cccc(F)c1OC(=O)c1ccc(O)cc1)c1ccc(O)cc1 [Compound 1p]	–	92.6 ± 0.7	35.9 ± 4.7	–
CN(Cc1cccc(O)c1)c1ccc(Cl)cc1N(C)Cc1cccc(O)c1 [WZB-145]	73.2 ± 3.8%	–	–	Cell growth inhibition (%) (H1299 lung cancer cells; Table 12): 38.2 ± 6.6%
O=C(Oc1cccc(OC(=O)c2ccccc2O)c1OC(=O)c1ccccc1O)c1ccccc1O [Compound 2d]	–	74.7 ± 2.0	–	–
COc1cc(C(=O)Oc2ccc(Cl)cc2OC(=O)c2cc(OC)c(OC)c(OC)c2)cc(OC)c1OC [Compound 7b]	–	1.7 ± 1.1	20.6 ± 2.1	level of glucose transport inhibition (in words) (H1299 cells; 30 μM): dramatically decreased
O=C(Oc1ccc(Cl)cc1OC(=O)c1ccc(O)cc1)c1ccc(O)cc1 [Compound 1o]	–	79.0 ± 8.7	–	–
COc1cc(C(=O)Oc2cccc(OC)c2OC(=O)c2cc(OC)c(OC)c(OC)c2)cc(OC)c1OC [Compound 7a]	–	33.3 ± 3.6	22.2 ± 3.4	level of glucose transport inhibition (in words) (H1299 cells; 30 μM): dramatically decreased
O=C(Oc1cccc(F)c1OC(=O)c1cc(O)c(O)c(O)c1)c1cc(O)c(O)c(O)c1 [Compound 1c]	–	81.1 ± 1.1	–	% inhibition of basal glucose transport (H1299 cells): 81.0 ± 1.1%
COc1cccc(OC(=O)c2ccc(O)cc2)c1OC(=O)c1ccc(O)cc1 [Compound 1n]	–	86.5 ± 2.8	36.6 ± 6.7	–
O=C(Oc1ccccc1OC(=O)c1ccc(O)cc1)c1ccc(O)cc1 [Compound 1q]	–	57.5 ± 2.9	–	–
